Patent US8067231B2 (priority 2005, dated 2011)

System: Neuro-2A
Assay type: cell-based, mouse

CC1=C(/C=C/C(C)=C/C=C/C(C)=C/C(=O)O)C(C)(C)CCC1 [all trans retinoic acid, All Trans-Retinoic acid]
BoNT/A SNAP25197-cleavage product (uptake of BoNT/A) after differentiation reagent treatment: increase
